This assay relates to male Wistar rats, hypothermia induced by the D3 dopaminergic agonist 7-OH-DPAT. The assay can be described thus: Hypothermia in the rat induced by the D3 agonist 7-OH-DPAT (reversal test). The assay is classed as in vivo. The conditions noted are these: for ΔT°C. (rectal temperature vs base values): measured 30 min after, mean ± sem, n ≥ 5. The source says: That selectivity makes the compounds of the present invention valuable especially for use as medicaments that act on the dopaminergic system without causing the undesirable effects of D2 ligands.
In vivo: by the capacity of the products of the invention to modulate hypothermia induced in the rat by the D3 dopaminergic agonist: 7-OH-DPAT.
1.2 In vivo - Hypothermia in the rat
The tests were carded out on male Wistar rats weighing 200-250 g placed in individual cages with free access to food and water. The products were dissolved in distilled water to which several drops of lactic acid are added. The injections were effected in a volume of 1.0 ml/kg by the subcutaneous route. The doses are expressed in terms of the base. The rectal temperature of the rats was recorded using a digital thermistoprobe (Millan et al, I.P.E.T., 1993, 264, p. 1364-1376). During a first period, the rats were injected with the compound to be tested or the carrier, and were then put back in their cages for 30 minutes. The rats were then given an injection of 7-OH-DPAT (0.16 mg/kg) and were placed in their cages again. Thirty minutes later, the rectal temperature was measured and the difference was determined by comparison with the base values (.increment.T° C.). The inhibitory dose (95 % confidence limits) for reducing the effect of the 7-OH-DPAT by 50 % was calculated according to the Finney method (Statistical Method in Biological Assays, 2nd ed., Hafner Publishing, New York, 1964).

Each structure is given as a SMILES string.

Turning to `CCCN1CCO[C@@H]2c3cc4c(cc3CC[C@H]21)CCS4` (relative stereo) [Example 2, Trans-3,4,4a,5,6,8,9,11b-octahydrothieno[2,3-b]-1,4-oxazino[3,2-h]-4-propyl-2H-naphthalene], the ED50 (Rattus norvegicus, sc, 7-OH-DPAT 0.16 mg/kg, Finney method, 95 % confidence limits in brackets, read-out: inhibitory dose (ID50) (95 % C.L.) for reducing the effect of 7-OH-DPAT by 50 %) came to 0.41 mg/kg. For the same compound, the “ΔT°C. (rectal temperature vs base values)” value (injection 1: product 0.16 mg/kg s.c., injection 2: 7-OH-DPAT 0.16 mg/kg 30 min later) is -1.48 ± 0.44 °C.

As to `CCCN(CCC)C1CCc2ccc(O)cc2C1` (stereo not drawn) [Example 7-OH-DPAT, reference compound], the “ΔT°C. (rectal temperature vs base values)” value (injection 1: carrier, injection 2: 7-OH-DPAT 0.16 mg/kg s.c.) is -1.66 ± 0.07 °C.
